Patent US12653191B2, “Active compound combinations” (Bayer Aktiengesellschaft, priority 2020, dated 2026)
Where “and” joins values, the source holds several entries; their conditions need not be identical. Equal entries are not always repeated. Where two headings read alike, the source gives them in different places.

Legend:
[1] = tested on: Colletotrichum lindemuthianum; assay: in vitro-Test with fungal microorganisms, Method A (tables D1-D8); assay type: cell-based
Experimental: (§1) Example: In Vitro-Test with Fungal Microorganisms
(§2) Wells of 96-well microtiter plates are filled with 10 μl of a preparation of test compound or compound combination in methanol+emulsifier alkylaryl-polyglycol-ether. Thereafter, the solvent is evaporated in a hood. At the next step, 100 μl of liquid potato dextrose medium is given into each well, that has been amended with an appropriate concentration of spores or mycelium suspension of the test fungus.
(§3) With the aid of a photometer, the extinction in all wells is measured at the wavelength of 620 nm.
(§4) The microtiter plates are incubated at 20° C. and 85% relative humidity. The inhibition of growth is determined again photometrically 3-5 days after the application. Efficacy is calculated in relation to the untreated control, 0% efficacy means fungal growth as high as in untreated control while 100% efficacy means no fungal growth is measured.
(§5) The data in tables A1 to A12, B1 to B14, C1 to C10, D1 to D8, E1 to E8, F1 to F11, G1 to G4, H1 to H4 and I1 to I5 were collected according to Method A. The data in tables A13 to A22, B15 to B18, C11 to C20, E9 to E16, F12 to F15, G5 to G15, H5 to H8, I6 to I11 and J1 to J11 were collected according to Method B.

Diaporthe citri = assay: in vitro-Test with fungal microorganisms, Method A (tables F1-F11); assay type: cell-based
Experimental: as §1, §2, §3, §4, §5

Cordana musae [2] = assay: in vitro-Test with fungal microorganisms, Method B (tables E9-E16); assay type: cell-based; conditions: single active
Experimental: as §1
as §2, with “30” for “10”, “200” for “100”, “growth” for “potato dextrose”, “given,” for “given into each well,”
(§6) With the aid of a photometer, the extinction in all wells is measured at the wavelength of 600 nm.
(§7) The microtiter plates are incubated for 3 to 7 days at 20° C. and 85% relative humidity. After the incubation inhibition of growth is determined photometrically. Efficacy is calculated in relation to the untreated control, 0% efficacy means fungal growth as high as in untreated control while 100% efficacy means no fungal growth is measured.
as §5

Fusarium culmorum = assay: in vitro-Test with fungal microorganisms, Method B (tables G5-G15); assay type: cell-based
Experimental: as §1
as §2, with “30” for “10”, “200” for “100”, “growth” for “potato dextrose”, “given,” for “given into each well,”
as §6, §7, §5

Alternaria alternata = assay: in vitro-Test with fungal microorganisms, Method B (tables A13-A22); assay type: cell-based
Experimental: as §1
as §2, with “30” for “10”, “200” for “100”, “growth” for “potato dextrose”, “given,” for “given into each well,”
as §6, §7, §5

Colletotrichum coccodes = assay: in vitro-Test with fungal microorganisms, Method B (tables J1-J11); assay type: cell-based
Experimental: as §1
as §2, with “30” for “10”, “200” for “100”, “growth” for “potato dextrose”, “given,” for “given into each well,”
as §6, §7, §5

[3] = tested on: Ustilago segetum var. avenae; assay: in vitro-Test with fungal microorganisms, Method B (tables I6-I11); assay type: cell-based
Experimental: as §1
as §2, with “30” for “10”, “200” for “100”, “growth” for “potato dextrose”, “given,” for “given into each well,”
as §6, §7, §5

Botrytis cinerea = assay: in vitro-Test with fungal microorganisms, Method A (tables B1-B14); assay type: cell-based; conditions: alone
Experimental: as §1, §2, §3, §4, §5

Cercospora beticola [4] = assay: in vitro-Test with fungal microorganisms, Method B (tables C11-C20); assay type: cell-based
Experimental: as §1
as §2, with “30” for “10”, “200” for “100”, “growth” for “potato dextrose”, “given,” for “given into each well,”
as §6, §7, §5

Cordana musae [5] = assay: in vitro-Test with fungal microorganisms, Method A (tables E1-E8); assay type: cell-based; conditions: Neocordana musae, single substance, read-out: Efficacy %
Experimental: as §1, §2, §3, §4, §5

Cercospora beticola [6] = assay: in vitro-Test with fungal microorganisms, Method A (tables C1-C10); assay type: cell-based
Experimental: as §1, §2, §3, §4, §5

Alternaria alternate = assay: in vitro-Test with fungal microorganisms, Method A (tables A1-A12); assay type: cell-based, Alternaria alternata; conditions: Alternaria, applied alone, read-out: Efficacy %
Experimental: as §1, §2, §3, §4, §5

[7] = single active compound at 4 ppm
[8] = Fusarium culmorum, alone, read-out: Efficacy
[9] = Fusarium culmorum, single active compound, read-out: Efficacy
[10] = Cercospora beticola, read-out: Efficacy %
[11] = Cercospora beticola, single compound, read-out: Efficacy %

CCO[PH](=O)[O-].CCO[PH](=O)[O-].CCO[PH](=O)[O-].[Al+3] [(15.012) fosetyl-aluminium, fosetyl-aluminium]
Efficacy % ([1]; mixing partner alone, 4.0 ppm): 0% | Efficacy % ([1]; mixing partner alone, 20.0 ppm): 8% | Efficacy % ([1]; mixing partner alone, 100.0 ppm): 70% | Efficacy % ([1]; single active at 0.8 ppm): 0% | Efficacy % ([1]; single active at 4.0 ppm): 0% | Efficacy % ([1]; single active at 100.0 ppm): 39% and 58% | Efficacy (Diaporthe citri; Table F11, 0.8 ppm alone): 23% | Efficacy (Diaporthe citri; Table F11, 4.0 ppm alone): 0% | Efficacy (Diaporthe citri; Table F11, 20.0 ppm alone): 0% | Efficacy (Diaporthe citri; Table F11, 100.0 ppm alone): 0% | Efficacy (Diaporthe citri; applied alone, 0.8 ppm): 0% | Efficacy (Diaporthe citri; applied alone, 4.0 ppm): 23% | Efficacy (Diaporthe citri; applied alone, 100.0 ppm): 30%

CCO[PH](=O)[O-].CCO[PH](=O)[O-].CCO[PH](=O)[O-].[Al+3] [(15.012) fosetyl-al]
Efficacy (Cordana musae [2]; 0.8 ppm): 0%

CCO[PH](=O)O [fosetylal]
Efficacy (Fusarium culmorum; 0.8 ppm, alone): 11% | Efficacy (Alternaria alternata; 4 ppm): 0% | Efficacy (Alternaria alternata; 20 ppm): 4% | Efficacy (Alternaria alternata; 100 ppm): 8% | Efficacy (Alternaria alternata; single compound, 0.8 ppm): 0% | Efficacy (Alternaria alternata; single compound, 4 ppm): 2%

COCC(=O)N(c1c(C)cccc1C)[C@H](C)C(=O)OC [(12.004) metalaxylm]
Efficacy % (Colletotrichum coccodes; single active compound at 0.8 ppm): 40% | Efficacy % (Colletotrichum coccodes; [7]): 24% | Efficacy % (Colletotrichum coccodes; single active compound at 20 ppm): 48% | Efficacy % (Colletotrichum coccodes; single active compound at 100 ppm): 61% | Efficacy % ([3]; 0.8 ppm): 8% | Efficacy % ([3]; 100 ppm): 3%

CCO[PH](=O)[O-].CCO[PH](=O)[O-].CCO[PH](=O)[O-].[Al+3] [(15.012) fosetylaluminium]
Efficacy % (Botrytis cinerea; 0.8 ppm): 0% | Efficacy % (Botrytis cinerea; 4.0 ppm): 13% | Efficacy % (Botrytis cinerea; 100.0 ppm): 1%

CCCN(CC)CC1COC2(CCC(C(C)(C)C)CC2)O1 (centres unmarked) [spiroxamin]
Efficacy (Fusarium culmorum; 0.8 ppm, alone): 3% | Efficacy (Alternaria alternata; single compound, 0.8 ppm): 3% | Efficacy (Alternaria alternata; single compound, 4 ppm): 15% | Efficacy (Alternaria alternata; single compound, 20 ppm): 15%

N#Cc1ccc(Oc2ccc(C(F)(F)C(O)(Cn3[nH]cnc3=S)c3ccc(F)cc3F)nc2)cc1 (centres unmarked) [(1.062) fluoxytioconazole, fluoxytio-conazole]
Efficacy % (Colletotrichum coccodes; 0.008 ppm): 32% | Efficacy % (Colletotrichum coccodes; 0.04 ppm): 0% | Efficacy % (Colletotrichum coccodes; single active compound at 0.008 ppm): 0% | Efficacy % (Colletotrichum coccodes; single active compound at 0.04 ppm): 2% | Efficacy % (Colletotrichum coccodes; single active compound at 0.2 ppm): 29% | Efficacy % (Colletotrichum coccodes; single active compound at 1 ppm): 35% | Efficacy (Fusarium culmorum; single active compound, 1 ppm): 30% | Efficacy % (Cercospora beticola [4]; single compound, 0.008 ppm): 0% | Efficacy % (Cercospora beticola [4]; single compound, 0.04 ppm): 0% | Efficacy % (Cercospora beticola [4]; single compound, 0.2 ppm): 0% | Efficacy % (Cercospora beticola [4]; single compound, 1 ppm): 48% and 54% | Efficacy (Cordana musae [2]; 0.008 ppm): 4% | Efficacy (Cordana musae [2]; 0.2 ppm): 10% | Efficacy % ([3]; 0.04 ppm): 43%

OC(Cc1ccccc1Cl)(Cn1nc[nH]c1=S)C1(Cl)CC1 (centres unmarked) [(1.018) prothioconazole, prothioconazole]
inhibition of growth at 0.004 ppm (Colletotrichum coccodes; Colletotrichum coccodes, single active compound at 0.004 ppm, read-out: Efficacy %): 0% | inhibition of growth at 0.02 ppm (Colletotrichum coccodes; Colletotrichum coccodes, single active compound at 0.02 ppm, read-out: Efficacy %): 1% | inhibition of growth at 0.5 ppm (Colletotrichum coccodes; Colletotrichum coccodes, single active compound at 0.5 ppm, read-out: Efficacy %): 100% | inhibition of growth at 0.004 ppm (Fusarium culmorum; [8]): 6% | inhibition of growth at 0.02 ppm (Fusarium culmorum; [8]): 52% | inhibition of growth at 0.1 ppm (Fusarium culmorum; Fusarium culmorum, 0.1 ppm, alone, read-out: Efficacy): 98% | inhibition of growth at 0.004 ppm (Fusarium culmorum; [9]): 22% | inhibition of growth at 0.02 ppm (Fusarium culmorum; [9]): 22% | inhibition of growth at 0.004 ppm (Alternaria alternata; Alternaria alternata, single compound, 0.004 ppm, read-out: Efficacy): 46% | inhibition of growth at 0.02 ppm (Alternaria alternata; Alternaria alternata, single compound, 0.02 ppm, read-out: Efficacy): 89% | inhibition of growth at 0.1 ppm (Alternaria alternata; Alternaria alternata, single compound, 0.1 ppm, read-out: Efficacy): 100% | inhibition of growth at 0.5 ppm (Alternaria alternata; Alternaria alternata, single compound, 0.5 ppm, read-out: Efficacy): 99% | inhibition of growth at 0.008 ppm ([1]; Colletotrichum lindemuthianum, mixing partner alone, 0.008 ppm, read-out: Efficacy %): 0% | inhibition of growth at 0.04 ppm ([1]; Colletotrichum lindemuthianum, mixing partner alone, 0.04 ppm, read-out: Efficacy %): 20% | inhibition of growth at 0.2 ppm ([1]; Colletotrichum lindemuthianum, mixing partner alone, 0.2 ppm, read-out: Efficacy %): 100% | inhibition of growth at 1 ppm ([1]; Colletotrichum lindemuthianum, mixing partner alone, 1.0 ppm, read-out: Efficacy %): 100% | inhibition of growth at 0.04 ppm (Cordana musae [5]; 0.04 ppm): 6% | inhibition of growth at 1 ppm (Cordana musae [5]; 1.0 ppm): 100% | Efficacy % (Cercospora beticola [6]; 0.2 ppm alone): 98% | inhibition of growth at 0.008 ppm (Cercospora beticola [6]; Cercospora beticola, 0.008 ppm, read-out: Efficacy %): 6% | inhibition of growth at 0.04 ppm (Cercospora beticola [6]; Cercospora beticola, 0.04 ppm alone, read-out: Efficacy %): 22% | inhibition of growth at 0.04 ppm (Cercospora beticola [6]; Cercospora beticola, 0.04 ppm, read-out: Efficacy %): 38% | inhibition of growth at 0.2 ppm (Cercospora beticola [6]; Cercospora beticola, 0.2 ppm alone, read-out: Efficacy %): 100% | inhibition of growth at 0.2 ppm (Cercospora beticola [6]; Cercospora beticola, 0.2 ppm, read-out: Efficacy %): 100% | inhibition of growth at 1 ppm (Cercospora beticola [6]; Cercospora beticola, 1.0 ppm alone, read-out: Efficacy %): 100% | inhibition of growth at 1 ppm (Cercospora beticola [6]; Cercospora beticola, 1.0 ppm, read-out: Efficacy %): 100% | inhibition of growth at 0.004 ppm (Cercospora beticola [4]; [10]): 39% | inhibition of growth at 0.1 ppm (Cercospora beticola [4]; [10]): 100% | inhibition of growth at 0.5 ppm (Cercospora beticola [4]; [10]): 100% | inhibition of growth at 0.004 ppm (Cercospora beticola [4]; [11]): 30% | inhibition of growth at 0.02 ppm (Cercospora beticola [4]; Cercospora beticola, single compound, 0.02 ppm, read-out: Efficacy %): 0% | inhibition of growth at 0.1 ppm (Cercospora beticola [4]; [11]): 15% | inhibition of growth at 0.5 ppm (Cercospora beticola [4]; [11]): 0% | inhibition of growth at 0.004 ppm (Cordana musae [2]; Neocordana musae, 0.004 ppm, read-out: Efficacy): 0% | inhibition of growth at 0.1 ppm (Cordana musae [2]; Neocordana musae, 0.1 ppm, read-out: Efficacy): 81% | inhibition of growth at 0.5 ppm (Cordana musae [2]; Neocordana musae, 0.5 ppm, read-out: Efficacy): 100% | inhibition of growth at 0.008 ppm (Diaporthe citri; Diaporthe citri, applied alone, 0.008 ppm, read-out: Efficacy): 0% | inhibition of growth at 0.04 ppm (Diaporthe citri; Diaporthe citri, applied alone, 0.04 ppm, read-out: Efficacy): 95% | inhibition of growth at 0.2 ppm (Diaporthe citri; Diaporthe citri, applied alone, 0.2 ppm, read-out: Efficacy): 100% | inhibition of growth at 1 ppm (Diaporthe citri; Diaporthe citri, applied alone, 1.0 ppm, read-out: Efficacy): 99% | inhibition of growth at 0.008 ppm (Botrytis cinerea; Botrytis cinerea, 0.008 ppm, read-out: Efficacy %): 0% | inhibition of growth at 0.04 ppm (Botrytis cinerea; Botrytis cinerea, 0.04 ppm, read-out: Efficacy %): 48% | inhibition of growth at 0.2 ppm (Botrytis cinerea; Botrytis cinerea, 0.2 ppm, read-out: Efficacy %): 94% | inhibition of growth at 1 ppm (Botrytis cinerea; Botrytis cinerea, 1.0 ppm, read-out: Efficacy %): 100% | inhibition of growth at 0.008 ppm (Alternaria alternate; 0.008 ppm): 20% | inhibition of growth at 0.04 ppm (Alternaria alternate; 0.04 ppm): 15% | inhibition of growth at 0.2 ppm (Alternaria alternate; 0.2 ppm): 94%

Fc1ccc(Oc2ccnc3cc(Cl)cc(Cl)c23)cc1 [(13.005) quinoxifen]
Efficacy % (Cercospora beticola [4]; single compound, 0.08 ppm): 3%

CS(=O)(=O)Oc1cccc(Cl)c1C1CC(c2csc(C3CCN(C(=O)Cn4nc(C(F)F)cc4C(F)F)CC3)n2)=NO1 (centres unmarked) [(15.043) fluoxapiprolin, fluoxa-piprolin]
Efficacy % (Colletotrichum coccodes; 0.8 ppm): 0% | Efficacy % (Colletotrichum coccodes; 20 ppm): 0% | Efficacy % (Colletotrichum coccodes; [7]): 0% and 2% | Efficacy (Fusarium culmorum; single active compound, 0.8 ppm): 13% | Efficacy (Fusarium culmorum; single active compound, 4 ppm): 14% | Efficacy % (Cercospora beticola [4]; single compound, 0.8 ppm): 0% | Efficacy % (Cercospora beticola [4]; single compound, 4 ppm): 3% and 0% | Efficacy % (Cercospora beticola [4]; single compound, 20 ppm): 0% | Efficacy (Cordana musae [2]; 20 ppm): 0%
